Measured values published in US6875777B2, “Compounds” (AstraZeneca AB, priority 1999, dated 2005).

What was measured:
[1] = MLM metabolic stability (% remaining); conditions: for MLM 10000 % REM.: 10000 (unit not given); for MLM 100000 % REM.: 100000 (unit not given)
[2] = RLM metabolic stability (% remaining); conditions: for RLM 10000 % REM.: 10000 (unit not given); for RLM 100000 % REM.: 100000 (unit not given)

| Structure (SMILES) | MLM 10000 % REM. [1] [%] | MLM 100000 % REM. [1] [%] | RLM 10000 % REM. [2] [%] | RLM 100000 % REM. [2] [%] |
| --- | --- | --- | --- | --- |
| CCN(CC)C(=O)c1ccc(N(c2cccc(O)c2)C2CCN(Cc3ccsc3)CC2)cc1 [Example 16, N,N-diethyl-4-[(3-hydroxyphenyl)[1-(3-thienylmethyl)-4-piperidinyl]amino]-benzamide] | 5 | 83 | 1.5 | 66.5 |
| CCN(CC)C(=O)c1ccc(N(c2cccc(O)c2)C2CCN(Cc3ncc[nH]3)CC2)cc1 [Example 29, N,N-diethyl-4-{3-hydroxy[1-(1H-imidazol-2-ylmethyl)-4-piperidinyl]anilino}benzamide] | 6 | 92.5 | 36.5 | 74.5 |
| CCN(CC)C(=O)c1ccc(N(c2cccc(O)c2)C2CCN(Cc3ccc(Br)cc3)CC2)cc1 [Example 20, N,N-diethyl-4-[[1-[(4-bromophenyl)methyl]-4-piperidinyl](3-hydroxyphenyl)amino]-benzamide] | 30.5 | 81.5 | 4.5 | 51.5 |
| CCN(CC)C(=O)c1ccc(N(c2cccc(O)c2)C2CCN(Cc3ccc(I)cc3)CC2)cc1 [Example 19, N,N-diethyl-4-[(3-hydroxyphenyl)[1-[(4-iodophenyl)methyl]-4-piperidinyl]amino]-benzamide] | 30.667 | 61.667 | 0 | 35.667 |
| CCN(CC)C(=O)c1ccc(N(c2cccc(O)c2)C2CCN(Cc3ccccc3)CC2)cc1 [Example 1] | 10.4 | 85.2 | 4.333 | 66.125 |
| CCN(CC)C(=O)c1ccc(N(c2cccc(O)c2)C2CCN(Cc3ccccn3)CC2)cc1 [Example 30, N,N-diethyl-4-{3-hydroxy[1-(2-pyridinylmethyl)-4-piperidinyl]anilino}benzamide] | 26 | 82 | 31 | 74 |
| CCN(CC)C(=O)c1ccc(N(c2cccc(O)c2)C2CCN(Cc3ccoc3)CC2)cc1 [Example 15, N,N-diethyl-4-[[1-(3-furanylmethyl)-4-piperidinyl](3-hydroxyphenyl)amino]-benzamide] | 3.5 | 83.5 | 8 | 73 |
| CCN(CC)C(=O)c1ccc(N(c2cccc(O)c2)C2CCN(Cc3ccc(Cl)cc3Cl)CC2)cc1 [Example 23, 4-[[1-[(2,4-dichlorophenyl)methyl]-4-piperidinyl](3-hydroxyphenyl)amino]-N,N-diethyl-benzamide] | 30.5 | 93 | 20.5 | 75 |
| CCN(CC)C(=O)c1ccc(N(c2cc(O)ccc2F)C2CCN(Cc3ccccc3)CC2)cc1 [Example 6, N,N-diethyl-4-[(2-fluoro-5-hydroxyphenyl)[1-(phenylmethyl)-4-piperidinyl]amino]-benzamide] | 2 | 69 | 5.333 | 81.333 |
| CCN(CC)C(=O)c1ccc(N(c2cccc(O)c2)C2CCN(Cc3ccc(Cl)cc3)CC2)cc1 [Example 21, N,N-diethyl-4-[[1-[(4-chlorophenyl)methyl]-4-piperidinyl](3-hydroxyphenyl)amino]-benzamide] | 16.333 | 85 | 2.333 | 45 |
| CCN(CC)C(=O)c1ccc(N(c2cccc(O)c2)C2CCN(Cc3ccc(F)cc3)CC2)cc1 [Example 22, N,N-diethyl-4-[[1-[(4-fluorophenyl)methyl]-4-piperidinyl](3-hydroxyphenyl)amino]-benzamide] | 8.5 | 85 | 17 | 63 |
| CCN(CC)C(=O)c1ccc(N(c2cccc(O)c2)C2CCN(Cc3ccc(C)cc3)CC2)cc1 [Example 26, N,N-diethyl-4-[(3-hydroxyphenyl)[1-[(4-methylphenyl)methyl]-4-piperidinyl]amino]-benzamide] | 31.5 | 86 | 3.5 | 63.5 |
| CCN(CC)C(=O)c1ccc(N(c2cccc(O)c2)C2CCN(Cc3cccc(F)c3)CC2)cc1 [Example 24, N,N-diethyl-4-[[1-[(3-fluorophenyl)methyl]-4-piperidinyl](3-hydroxyphenyl)amino]-benzamide] | 3.5 | 71.5 | 3.5 | 87.5 |
| CCN(CC)C(=O)c1ccc(N(c2cccc(O)c2)C2CCN(Cc3ccco3)CC2)cc1 [Example 27, N,N-diethyl-4-[[1-(2-furanylmethyl)-4-piperidinyl](3-hydroxyphenyl)amino]-benzamide] | 2 | 65 | 3.5 | 54.5 |
| CCN(CC)C(=O)c1ccc(N(c2cccc(O)c2)C2CCN(Cc3ccccc3F)CC2)cc1 [Example 25, N,N-diethyl-4-[[1-[(2-fluorophenyl)methyl]-4-piperidinyl](3-hydroxyphenyl)amino]-benzamide] | 0 | 71 | 4 | 71 |
| CCN(CC)C(=O)c1ccc(N(c2cccc(O)c2)C2CCN(Cc3cccs3)CC2)cc1 [Example 28, N,N-diethyl-4-[(3-hydroxyphenyl)[1-(2-thienylmethyl)-4-piperidinyl]amino]-benzamide] | 1.5 | 80 | 1.5 | 52 |
